# Target: T1, CCK-1 receptor (Homo sapiens, UniProt P32238)
# T1 construct: expressed in transfected cells; membranes
# T1 sequence (P32238 1-428): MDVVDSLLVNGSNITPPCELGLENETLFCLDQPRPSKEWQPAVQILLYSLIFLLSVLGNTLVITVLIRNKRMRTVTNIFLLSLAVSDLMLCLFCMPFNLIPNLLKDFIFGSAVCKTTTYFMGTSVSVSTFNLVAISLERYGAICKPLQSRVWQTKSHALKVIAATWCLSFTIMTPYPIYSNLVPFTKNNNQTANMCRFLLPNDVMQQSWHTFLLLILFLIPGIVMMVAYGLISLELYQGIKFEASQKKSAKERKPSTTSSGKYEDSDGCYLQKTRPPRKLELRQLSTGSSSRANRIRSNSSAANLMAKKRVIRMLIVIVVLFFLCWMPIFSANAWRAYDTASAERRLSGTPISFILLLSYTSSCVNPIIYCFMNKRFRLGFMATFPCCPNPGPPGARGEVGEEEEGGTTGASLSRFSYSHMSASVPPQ
# Test: [125I]-BH-CCK-8S competition binding to membranes of CHO-K1 cells stably transfected with the CCK-1 receptor
# Settings: membranes of CCK-1 transfected CHO-K1 cells; 20 pM [125I]-BH-CCK-8S; 0.3 μM PD-134,308 present; 60 min at 21±3° C.; Cheng-Prusoff
# Experimental: CHO-K1 cells that had undergone stable transfection with the CCK-1 receptor were grown in DMEM supplemented with L-glutamine (2 mM), penicillin (50 units/mL) and streptomycin (50 μg/mL). Cells were cultured under continuous G418 selection (2 mM) and were harvested using a rubber cell scraper. CHO-K1 cells were sub-cultured a maximum of ten times before being reseeded from the original stocks.
# Membranes were prepared from the stably transfected CHO-K1 cells. Frozen cell pellets (−40° C.) were thawed in 14 mL of buffer A (10 mM HEPES, 130 mM NaCl, 4.7 mM KCl, 5 mM MgCl, 1 mM EGTA and 15.4 mg/100 mL bacitracin at pH 7.2), adapted from Harper et al. (Br. J. Pharmacol. 1996, 118:1717-1726). The thawed pellets were homogenized using a Polytron PT-10 (7×1 s). The homogenates were centrifuged for 5 min at 1500 rpm (600×g), and the resulting pellets were discarded. The supernatants were re-centrifuged in order to collect the receptor-membrane pellets (25 min 15,000 rpm; 39,800×g), which were re-suspended in buffer A.
# All assays were conducted in 96-well plates (GF/B millipore filter plates) using buffer A, with 0.3 μM PD-134,308, for the dilutions. The CCK-2 receptor ligand was included to eliminate the contribution of this receptor subtype to the binding. For the optimal cell number determination experiments 20 pM [^125I]-BH-CCK-8S (50 μL 60 pM solution) was incubated with a range of cell concentrations (2.5×105 to 12.5×10^5 cells/well) in a total volume of 150 μL. Total binding of [^125I]-BH-CCK-8S was determined in the presence of 15 μL of buffer A. Non-specific binding of [^125I]-BH-CCK-8S was determined in the presence of 15 μL of 100 μM 2-naphthalenesulphonyl L-aspartyl-(2-phenethyl)amide (2-NAP: see R. A. Hull et al. Br. J. Pharmacol. 1993, 108:734-740), a CCK-1 receptor selective antagonist that is structurally unrelated to the radioligand [^125I]-BH-CCK-8S. The assay preparation was incubated for 1 h at 21±3° C., and then the assay was terminated upon rapid filtration of the preparation under reduced pressure. The loaded filters were washed three times using undiluted PBS (100 μL), and then the residues were transferred to 5 mL scintillation tubes. Bound radioactivity was determined using a gamma counter (count time=1 min). From these experiments a cell concentration of 1 pellet in 40 mL of buffer (2.5×10^6 cells/mL) was chosen for use in other assays (below). To validate the radioligand concentration and incubation time for the assay, saturation and kinetic binding studies were also conducted (see M. F. Morton, The Pharmacological Characterization of Cholecystokinin Receptors in the Human Gastrointestinal Tract. PhD Thesis, University of London, 2000). The affinity of novel compounds was estimated by incubating membrane preparations with 15 μL of competing ligand (0.1 pM-1 mM) for 60 min at 21±3° C. The assay was then terminated according to the procedure outlined above.
# The pKi values were determined using the equation of Y.-C. Cheng and W. H. Prusoff (Biochem. Pharmacol. 1973, 22(23):3099-3108):
# [formula] To circumvent problems associated with computer-assisted data analysis of compounds with low affinity, the data obtained in the current study were weighted according to a method described by Morton (2000). In brief, 100% and 0% specific binding were defined independently using total binding and binding obtained in the presence of a high concentration of the reference antagonist, 2-NAP.
row,SMILES,Ki [nM]
1,"O=C(O)/C(=C\c1nc(-c2ccccn2)c(-c2ccc3ccccc3c2)[nH]1)c1cccc(Cl)c1 [Example 12, (Z)-2-(3-Chloro-phenyl)-3-(5-naphthalen-2-yl-4-pyridin-2-yl-1H-imidazol-2-yl)-acrylic acid]",5.01
2,"O=C(O)C(Cc1nc(-c2ccc(F)cc2)c(-c2ccc(F)cc2)[nH]1)c1cccc2ccccc12 (stereo not drawn) [Example 34, 3-[4,5-Bis-(4-fluoro-phenyl)-1H-imidazol-2-yl]-2-naphthalen-1-yl-propionic acid]",10000
3,"COc1ccc(-c2[nH]c(/C=C(/C(=O)O)c3cccc4ccccc34)nc2-c2ccc(Cl)c(Cl)c2)cc1 [Example 13, (E)-3-[4-(3,4-Dichloro-phenyl)-5-(4-methoxy-phenyl)-1H-imidazol-2-yl]-2-naphthalen-1-yl-acrylic acid]",200
4,"COc1ccc(-c2[nH]c(/C=C(\C(=O)O)c3cccc(Cl)c3)nc2-c2ccc(Cl)c(Cl)c2)cc1 [Example 8, (Z)-2-(3-Chloro-phenyl)-3-[4-(3,4-dichloro-phenyl)-5-(4-methoxy-phenyl)-1H-imidazol-2-yl]-acrylic acid]",5.01
5,"O=C(O)/C(=C/c1nc(-c2cc(Cl)ccc2Cl)c(-c2ccc3c(c2)OCO3)[nH]1)c1cccc2ccccc12 [Example 23, (E)-3-[5-Benzo[1,3]dioxol-5-yl-4-(2,5-dichloro-phenyl)-1H-imidazol-2-yl]-2-naphthalen-1-yl-acrylic acid]",79.4
6,"Cc1ccc(/C(=C/c2nc(-c3cc(Cl)ccc3Cl)c(-c3ccc4c(c3)OCO4)[nH]2)C(=O)O)cc1 [Example 6, (Z)-3-[5-Benzo[1,3]dioxol-5-yl-4-(2,5-dichloro-phenyl)-1H-imidazol-2-yl]-2-p-tolyl-acrylic acid]",3.98
7,"COc1ccc(-c2[nH]c(/C=C(/C(=O)O)c3cccc(C(F)(F)F)c3)nc2-c2ccc(Cl)c(Cl)c2)cc1 [Example 16, (E)-3-[4-(3,4-Dichloro-phenyl)-5-(4-methoxy-phenyl)-1H-imidazol-2-yl]-2-(3-trifluoromethyl-phenyl)-acrylic acid]",79.4
8,"COc1ccc(-c2[nH]c(/C=C(/C(=O)O)c3ccc(Cl)cc3)nc2-c2ccc(Cl)c(Cl)c2)cc1 [Example 15, (E)-2-(4-Chloro-phenyl)-3-[4-(3,4-dichloro-phenyl)-5-(4-methoxy-phenyl)-1H-imidazol-2-yl]-acrylic acid]",79.4
9,"O=C(O)/C(=C/c1nc(-c2cc(Cl)ccc2Cl)c(-c2ccc3c(c2)OCO3)[nH]1)c1cccc(Cl)c1 [Example 2, (E)-3-[5-Benzo[1,3]dioxol-5-yl-4-(2,5-dichloro-phenyl)-1H-imidazol-2-yl]-2-(3-chloro-phenyl)-acrylic acid]",3.16
10,"O=C(O)/C(=C\c1nc(-c2cc(Cl)ccc2Cl)c(-c2ccc3c(c2)OCO3)[nH]1)c1cccc(Cl)c1 [Example 1, (Z)-3-[5-Benzo[1,3]dioxol-5-yl-4-(2,5-dichloro-phenyl)-1H-imidazol-2-yl]-2-(3-chloro-phenyl)-acrylic acid]",2
11,"COc1ccc(-c2[nH]c(/C=C(\C(=O)O)c3cccc(C)c3)nc2-c2ccc(Cl)c(Cl)c2)cc1 [Example 9, (Z)-3-[4-(3,4-Dichloro-phenyl)-5-(4-methoxy-phenyl)-1H-imidazol-2-yl]-2-m-tolyl-acrylic acid]",7.94
12,"O=C(O)/C(=C\c1nc(-c2cc(Cl)ccc2Cl)c(-c2ccc3c(c2)OCO3)[nH]1)c1cccc2ccccc12 [Example 4, (Z)-3-[5-Benzo[1,3]dioxol-5-yl-4-(2,5-dichloro-phenyl)-1H-imidazol-2-yl]-2-naphthalen-1-yl-acrylic acid]",2.51
13,"COc1ccc(-c2[nH]c(/C=C(\C(=O)O)c3ccc(C)cc3)nc2-c2ccc(Cl)c(Cl)c2)cc1 [Example 11, (Z)-3-[4-(3,4-Dichloro-phenyl)-5-(4-methoxy-phenyl)-1H-imidazol-2-yl]-2-p-tolyl-acrylic acid]",10
14,"Cc1ccc(/C(=C\c2nc(-c3cc(Cl)ccc3Cl)c(-c3ccc4c(c3)OCO4)[nH]2)C(=O)O)cc1 [Example 22, (E)-3-[5-Benzo[1,3]dioxol-5-yl-4-(2,5-dichloro-phenyl)-1H-imidazol-2-yl]-2-p-tolyl-acrylic acid]",25.1
15,"Cc1ccc(-c2nc(CC(C(=O)O)c3cccc(C)c3)n(C)c2-c2ccc(C)cc2)cc1 (stereo not drawn) [Example 31, 3-(1-Methyl-4,5-di-p-tolyl-1H-imidazol-2-yl)-2-m-tolyl-propionic acid]",39.8
16,"COc1ccc(-c2[nH]c(/C=C(/C(=O)O)c3ccc(C)cc3)nc2-c2ccc(Cl)c(Cl)c2)cc1 [Example 14, (E)-3-[4-(3,4-Dichloro-phenyl)-5-(4-methoxy-phenyl)-1H-imidazol-2-yl]-2-p-tolyl-acrylic acid]",100

# Further lines, results first:
row,Ki [nM],SMILES
1,15.8,"O=C(O)/C(=C/c1nc(-c2cc(Cl)ccc2Cl)c(-c2ccc3c(c2)OCO3)[nH]1)c1ccc(Cl)cc1 [Example 20, (E)-3-[5-Benzo[1,3]dioxol-5-yl-4-(2,5-dichloro-phenyl)-1H-imidazol-2-yl]-2-(4-chloro-phenyl)-acrylic acid]"
2,39.8,"COc1ccc(-c2[nH]c(CC(C(=O)O)c3cccc4ccccc34)nc2-c2ccc(Cl)c(Cl)c2)cc1 (stereo not drawn) [Example 26, 3-[4-(3,4-Dichloro-phenyl)-5-(4-methoxy-phenyl)-1H-imidazol-2-yl]-2-naphthalen-1-yl-propionic acid]"
3,20,"O=C(O)/C(=C/c1nc(-c2cc(Cl)ccc2Cl)c(-c2ccc3c(c2)OCO3)[nH]1)c1cccc(C(F)(F)F)c1 [Example 21, (E)-3-[5-Benzo[1,3]dioxol-5-yl-4-(2,5-dichloro-phenyl)-1H-imidazol-2-yl]-2-(3-trifluoromethyl-phenyl)-acrylic acid]"
4,2,"Cc1cccc(/C(=C/c2nc(-c3cc(Cl)ccc3Cl)c(-c3ccc4c(c3)OCO4)[nH]2)C(=O)O)c1 [Example 3, (Z)-3-[5-Benzo[1,3]dioxol-5-yl-4-(2,5-dichloro-phenyl)-1H-imidazol-2-yl]-2-m-tolyl-acrylic acid]"
5,63.1,"COc1ccc(-c2[nH]c(/C=C(/C(=O)O)c3cccc(Cl)c3)nc2-c2ccc(Cl)c(Cl)c2)cc1 [Example 18, (E)-2-(3-Chloro-phenyl)-3-[4-(3,4-dichloro-phenyl)-5-(4-methoxy-phenyl)-1H-imidazol-2-yl]-acrylic acid]"
6,31.6,"COc1ccc(-c2[nH]c(CC(C(=O)O)c3cccc(C)c3)nc2-c2ccc(Cl)c(Cl)c2)cc1 (stereo not drawn) [Example 24, 3-[4-(3,4-Dichloro-phenyl)-5-(4-methoxy-phenyl)-1H-imidazol-2-yl]-2-m-tolyl-propionic acid]"
7,398,"O=C(O)C(Cc1nc(-c2ccccc2Cl)c(-c2ccccc2Cl)[nH]1)c1cccc2ccccc12 (stereo not drawn) [Example 32, 3-[4,5-Bis-(2-chloro-phenyl)-1H-imidazol-2-yl]-2-naphthalen-1-yl-propionic acid]"
8,63.1,"COc1ccc(-c2[nH]c(CC(C(=O)O)c3ccc(Cl)cc3)nc2-c2ccc(Cl)c(Cl)c2)cc1 (stereo not drawn) [Example 28, 2-(4-Chloro-phenyl)-3-[4-(3,4-dichloro-phenyl)-5-(4-methoxy-phenyl)-1H-imidazol-2-yl]-propionic acid]"
